What follows are molecules tested against T1, SYK (Homo sapiens, UniProt P43405) (assay: SYK Flash Plate Assay (enzyme assay)).
T1 construct: 2.5 nM SYK, 400 nM Biotin-Aha-Aha-KEDPDYEWPSAKK and 10 μM ATP
Type: biochemical
Procedure: The kinase assay is performed either as 384-well Flashplate assay (for e.g. Topcount measurement) or as 384-well Image-Flashplate assay (for LEADseeker measurement).
2.5 nM SYK, 400 nM Biotin-Aha-Aha-KEDPDYEWPSAKK and 10 μM ATP (spiked with 0.3 μCi 33P-ATP/well) are incubated in a total volume of 50 μl (60 mM Hepes, 10 mM MgCl2, 1.2 mM Dithiothreitol, 0.02% Brij35, 0.1% BSA, pH 7.5) with or without test compound for 1 hours at 30° C. The reaction is stopped with 25 μl 200 mM EDTA. After 30 Min at 30° C. the liquid is removed and each well washed thrice with 100 μl 0.9% sodium chloride solution. Non-specific reaction is determined in presence of 0.1 μM Staurosporine. Radioactivity is measured with Topcount (when using Flashplates) or with LEADseeker (when using Image-Flashplates) respectively. Results (e.g. IC50-values) are calculated with program tools provided by the IT-department (e.g. Symyx Assay Explorer, Genedata Screener).

Compound | IC50
COc1ccc([C@H](C)N)cc1-c1ccnc2cc(-c3cc(OC)c(OC)c(OC)c3)oc12 [Compound A101, (S)-1-{4-methoxy-3-[2-(3,4,5-trimethoxy-phenyl)-furo[3,2-b]pyridin-7-yl]-phenyl}-ethylamine] | 300 to 3000 nM
COc1cc(-c2cc3nccc(-c4cc(OCCN)ccc4F)c3o2)cc(OC)c1OC [Compound A44, 2-{4-fluoro-3-[2-(3,4,5-trimethoxy-phenyl)-furo[3,2-b]pyridin-7-yl]-phenoxy}-ethylamine] | 300 to 3000 nM
COc1cc(-c2cc3ncc(-c4cn[nH]c4)cc3o2)cc(OC)c1OC [Compound A59, 6-(1H-pyrazol-4-yl)-2-(3,4,5-trimethoxy-phenyl)-furo[3,2-b]pyridine] | 3000 to 50000 nM
COc1cc(OCCN)ccc1-c1cc2nccc(-c3ccc4[nH]cnc4c3)c2o1 [Compound A18, 2-{4-[7-(1H-benzoimidazol-5-yl)-furo[3,2-b]pyridin-2-yl]-3-methoxy-phenoxy}-ethylamine] | 300 to 3000 nM
COc1cc(OCCN)ccc1-c1cc2nccc(-c3cccc(C(=O)NCCO)c3)c2o1 [Compound A29, 3-{2-[4-(2-amino-ethoxy)-2-methoxy-phenyl]-furo[3,2-b]pyridin-7-yl}-N-(2-hydroxy-ethyl)-benzamide] | 3000 to 50000 nM
COc1cc(-c2cc3nccc(-c4cc(F)cc(C(=O)NCCCN)c4)c3o2)cc(OC)c1OC [Compound A61, N-(3-amino-propyl)-3-fluoro-5-[2-(3,4,5-trimethoxy-phenyl)-furo[3,2-b]pyridin-7-yl]-benzamide] | 3000 to 50000 nM
COc1cc(-c2cc3nccc(-c4nnc(C)o4)c3o2)cc(OC)c1OC [Compound A99, 7-(5-methyl-[1,3,4]oxadiazol-2-yl)-2-(3,4,5-trimethoxy-phenyl)-furo[3,2-b]pyridine] | 300 to 3000 nM
COc1ccc(C(N)=O)cc1-c1cc2nccc(-c3c(OC)cc(C(=O)NCCN)cc3OC)c2o1 [Compound A76, N-(2-amino-ethyl)-4-[2-(5-carbamoyl-2-methoxy-phenyl)-furo[3,2-b]pyridin-7-yl]-3,5-dimethoxy-benzamide] | < 100 nM
COc1cc(-c2cc3nccc(-c4cnc[nH]4)c3o2)cc(OC)c1OC [Compound A91, 7-(3H-imidazol-4-yl)-2-(3,4,5-trimethoxy-phenyl)-furo[3,2-b]pyridine] | 100 to 300 nM
COc1ccc(C(=O)NCC(C)(C)N)cc1-c1cc2nccc(-c3c(OC)cccc3OC)c2o1 [Compound A68, N-(2-amino-2-methyl-propyl)-3-[7-(2,6-dimethoxy-phenyl)-furo[3,2-b]pyridin-2-yl]-4-methoxy-benzamide] | 300 to 3000 nM
N[C@H]1CCCC[C@H]1NC(=O)c1cccc(-c2ccnc3cc(-c4cccc5c4OCO5)oc23)c1 [Compound A60, N-((1R,2S)-2-amino-cyclohexyl)-3-(2-benzo[1,3]dioxol-4-yl-furo[3,2-b]pyridin-7-yl)-benzamide] | 300 to 3000 nM
COc1ccc(C(N)=O)cc1-c1cc2nccc(-c3ccc(C(=O)NCCN)cc3OC)c2o1 [Compound A95, N-(2-aminoethyl)-4-[2-(5-carbamoyl-2-methoxy-phenyl)furo[3,2-b]pyridin-7-yl]-3-methoxy-benzamide] | 100 to 300 nM
COc1ccc(-c2noc(=O)[nH]2)cc1-c1cc2nccc(-c3cc[nH]n3)c2o1 [Compound A105, 3-{4-methoxy-3-[7-(1H-pyrazol-3-yl)-furo[3,2-b]pyridin-2-yl]-phenyl}-4H-[1,2,4]oxadiazol-5-one] | < 100 nM
COc1cc(-c2cc3nccc(-c4cccc(C(=O)NCC(C)(C)N)c4)c3o2)cc(OC)c1OC [Compound A32, N-(2-amino-2-methyl-propyl)-3-[2-(3,4,5-trimethoxy-phenyl)-furo[3,2-b]pyridin-7-yl]-benzamide] | 3000 to 50000 nM
CCc1ccc(OC)c(-c2cc3nccc(-c4cccc(C(=O)N[C@@H]5CCCC[C@@H]5N)c4)c3o2)c1 [Compound A43, N-((1R,2S)-2-amino-cyclohexyl)-3-[2-(5-ethyl-2-methoxy-phenyl)-furo[3,2-b]pyridin-7-yl]-benzamide] | 300 to 3000 nM
COc1cc(-c2cc3nccc(-c4ccc(N(C)C)cc4)c3o2)cc(OC)c1OC [Compound A65, dimethyl-{4-[2-(3,4,5-trimethoxy-phenyl)-furo[3,2-b]pyridin-7-yl]-phenyl}-amine] | 3000 to 50000 nM
COc1ccc(C(N)=O)cc1-c1cc2nccc(-c3cc[nH]c3)c2o1 [Compound A94, 4-methoxy-3-[7-(1H-pyrrol-3-yl)-furo[3,2-b]pyridin-2-yl]-benzamide] | 100 to 300 nM
COc1ccc(C(N)=O)cc1-c1cc2nccc(-c3ccnc(N[C@@H]4CCCC[C@@H]4N)c3)c2o1 [Compound A97, 3-{7-[2-((1R,2S)-2-amino-cyclohexylamino)-pyridin-4-yl]-furo[3,2-b]pyridin-2-yl}-4-methoxy-benzamide] | < 100 nM

Compound | IC50
COc1ccc(C(N)=O)cc1-c1cc2nccc(-c3cnc[nH]3)c2o1 [Compound A93, 3-[7-(3H-imidazol-4-yl)-furo[3,2-b]pyridin-2-yl]-4-methoxy-benzamide] | 100 to 300 nM
CCc1ccc(OC)c(-c2cc3nccc(-c4ccc5[nH]cnc5c4)c3o2)c1 [Compound A41, 7-(1H-benzoimidazol-5-yl)-2-(5-ethyl-2-methoxy-phenyl)-furo[3,2-b]pyridine] | 300 to 3000 nM
COc1cc(-c2cc3nccc(-c4nnc(CCN)o4)c3o2)cc(OC)c1OC [Compound A102, 2-{5-[2-(3,4,5-trimethoxy-phenyl)-furo[3,2-b]pyridin-7-yl]-[1,3,4]oxadiazol-2-yl}-ethylamine] | 3000 to 50000 nM
COc1ccc(C(N)=O)cc1-c1cc2nccc(-c3ccnc(NC4CCCCC4N)c3)c2o1 (centres unmarked) [Compound A81, 3-{7-[2-(2-amino-cyclohexylamino)-pyridin-4-yl]-furo[3,2-b]pyridin-2-yl}-4-methoxy-benzamide] | < 100 nM
COc1cc(-c2cc3nccc(-c4ccc5c(c4)ncn5CCN)c3o2)cc(OC)c1OC [Compound A3, 2-{5-[2-(3,4,5-Trimethoxy-phenyl)-furo[3,2-b]pyridin-7-yl]-benzoimidazol-1-yl}-ethylamine] | 300 to 3000 nM
COc1cc(-c2cc3nccc(-c4cc5cn[nH]c5cc4C)c3o2)cc(OC)c1OC [Compound A13, 7-(6-methyl-1H-indazol-5-yl)-2-(3,4,5-trimethoxy-phenyl)-furo[3,2-b]pyridine] | 300 to 3000 nM
COc1cc(-c2cc3nccc(-c4cccc(C(=O)N[C@@H]5CCC[C@H]5O)c4)c3o2)cc(OC)c1OC [Compound A12, N-((1R,2R)-2-hydroxy-cyclopentyl)-3-[2-(3,4,5-trimethoxy-phenyl)-furo[3,2-b]pyridin-7-yl]-benzamide] | 300 to 3000 nM
COc1ccc(-c2ncon2)cc1-c1cc2nccc(-c3c(OC)cccc3OC)c2o1 [Compound A85, 7-(2,6-dimethoxy-phenyl)-2-(2-methoxy-5-[1,2,4]oxadiazol-3-yl-phenyl)furo[3,2-b]pyridine] | < 100 nM
Cc1ccc(S(N)(=O)=O)cc1-c1cc2nccc(-c3cccc(C(=O)N[C@@H]4CCCC[C@@H]4N)c3)c2o1 [Compound A50, N-((1R,2S)-2-amino-cyclohexyl)-3-[2-(2-methyl-5-sulfamoyl-phenyl)furo[3,2-b]pyridin-7-yl]-benzamide] | 300 to 3000 nM
COCC(O)CNC(=O)c1cccc(-c2ccnc3cc(-c4cc(OC)c(OC)c(OC)c4)oc23)c1 (centres unmarked) [Compound A16, N-(2-hydroxy-3-methoxy-propyl)-3-[2-(3,4,5-trimethoxy-phenyl)-furo[3,2-b]pyridin-7-yl]-benzamide] | 3000 to 50000 nM
COc1cc(-c2cc3nccc(-c4cccc(C(=O)N[C@H]5C[C@@H](N)C5)c4)c3o2)cc(OC)c1OC [Compound A27, N-(3-amino-cyclobutyl)-3-[2-(3,4,5-trimethoxy-phenyl)-furo[3,2-b]pyridin-7-yl]-benzamide] | 300 to 3000 nM
Cc1cc2[nH]ncc2cc1-c1cc2nccc(-c3cccc(C(=O)N[C@@H]4CCCC[C@@H]4N)c3)c2o1 [Compound A45, N-((1R,2S)-2-amino-cyclohexyl)-3-[2-(6-methyl-1H-indazol-5-yl)-furo[3,2-b]pyridin-7-yl]-benzamide] | 300 to 3000 nM
COc1ccc(C(=O)O)cc1-c1cc2nccc(-c3c(OC)cccc3OC)c2o1 [Compound A66, 3-[7-(2,6-dimethoxy-phenyl)-furo[3,2-b]pyridin-2-yl]-4-methoxy-benzoic acid] | 300 to 3000 nM
COc1cc(-c2cc3nccc(-c4cc(C)cc(C(=O)NCCCN)c4)c3o2)cc(OC)c1OC [Compound A57, N-(3-amino-propyl)-3-methyl-5-[2-(3,4,5-trimethoxy-phenyl)-furo[3,2-b]pyridin-7-yl]-benzamide] | 300 to 3000 nM
COc1cc(-c2cc3nccc(-c4nnc(CCCN)[nH]4)c3o2)cc(OC)c1OC [Compound A108, 3-{5-[2-(3,4,5-trimethoxy-phenyl)-furo[3,2-b]pyridin-7-yl]-4H-[1,2,4]triazol-3-yl}-propylamine] | 100 to 300 nM
COc1cc(-c2cc3nccc(-c4cccc(C(=O)NC(C)(C)CO)c4)c3o2)cc(OC)c1OC [Compound A40, N-(2-hydroxy-1,1-dimethyl-ethyl)-3-[2-(3,4,5-trimethoxy-phenyl)-furo[3,2-b]pyridin-7-yl]-benzamide] | 300 to 3000 nM
COc1cc(-c2cc3nccc(-c4cccc(C(=O)N[C@@H]5C[C@@H]5N)c4)c3o2)cc(OC)c1OC [Compound A64, N-((1R,2S)-2-amino-cyclopropyl)-3-[2-(3,4,5-trimethoxy-phenyl)-furo[3,2-b]pyridin-7-yl]-benzamide] | 300 to 3000 nM

From US20150038527A1, “FUROPYRIDINE DERIVATIVES” (Merck Patent GmbH, priority 2012, published 2015)
